# PubChem BioAssay AID720512 (Broad Institute, 2013)
# Activity calls are given as the source filed them. No rule for the calls is given here.
# Target: Toxin B (TcdB) glycohydrolase, Clostridioides difficile 630
# Assay: TcdB glycohydrolase inhibitors, dose response, biochemical, cherry-pick, plate reader (AID 720512)
# Details: recombinant TcdB glycohydrolase activity; for activity change, negative = inhibition: at 19.5 µM (top of the series)
SMILES,"activity change, negative = inhibition",AC50
COc1cc(OC)c(OC)cc1/C=C/c1ccnc2ccccc12,inactive,–
CN1C(=O)C(c2nnc(Nc3cccc4ccccc34)s2)C2CC1(C)Oc1ccccc12 (configuration not stated),inactive,–
Nc1cc(=O)[nH]c(SCC(=O)Nc2ccccc2Sc2ccc(Cl)cc2)n1,inactive,–
COC(=O)CN1C(C)=Nc2ccc(Br)cc2C1c1ccccc1 (configuration not stated),inactive,–
CCS(=O)(=O)c1ccc2oc(Nc3ccc(C(C)(C)C)cc3)nc2c1,inactive,–
CS(=O)(=O)Nc1cccc(C2=NN(C(=O)c3ccccc3)C(c3cccs3)C2)c1 (configuration not stated),inactive,–
COc1cc(/C=C/C(=O)OCC(=O)NCc2ccco2)ccc1O,inactive,–
O=C(N/N=C/c1cccc([N+](=O)[O-])c1)c1ccc(Br)cc1,inactive,–
N#Cc1ccc(C(=O)N/N=C/c2cn(CC(=O)O)c3ccccc23)c(F)c1,inactive,–
Cn1c(=O)c2[nH]c(=S)n(Cc3ccccc3)c2n(C)c1=O,–,18.2 µM
CC(=O)Oc1ccc(/C=N/NC(=O)CCSc2ccccc2)cc1,–,> 39 µM (inactive)
O=C(COC(=O)c1ccc(F)cc1F)c1ccc[nH]1,inactive,–
COc1ccc(C2=NS(=O)(=O)N(C)C(C(=O)NCc3ccc4c(c3)OCO4)=C2)cc1OC,inactive,–
Oc1cc(O)cc(/C=C/c2ccc(O)c(O)c2)c1,inactive,–
CC(C)C12NC(=O)NC(=O)N1CCS2 (configuration not stated),inactive,–
Cc1ccc(C2=NS(=O)(=O)N(C)C(C(=O)NCc3ccc4c(c3)OCO4)=C2)cc1,inactive,–
O=C1COc2ccc(C(=O)COC(=O)CNS(=O)(=O)c3cccc(F)c3)cc2N1,inactive,–
CCOC(=O)c1nnn(-c2nonc2N)c1-c1ccccc1Cl,inactive,–
O=S(=O)(Oc1ccccc1/C=N/n1cnnc1)c1ccccc1,–,> 39 µM (inactive)
CC(C)CC(=O)N1CCN(Cc2ccc(Br)cc2)CC1,inactive,–
CN1/C(=C/C=C/c2n(C)c3cc([N+](=O)[O-])c([N+](=O)[O-])cc3[n+]2C)C(C)(C)c2ccccc21,–,> 39 µM (inactive)
COc1cc2[nH]c(=S)nc(NCCC(C)C)c2cc1OC,inactive,–
CCOC(=O)c1sc(=S)[nH]c1C,inactive,–

SMILES,"activity change, negative = inhibition",AC50
O=C(NC(=S)Nc1ccc(O)cc1)c1ccccc1Cl,inactive,–
COc1cc2c(cc1O)CC[n+]1cc3c(OC)c(OC)ccc3cc1-2,–,> 39 µM (inactive)
CC(C)Cc1nnc(NC(=O)CCC(=O)NCc2ccccc2Cl)s1,inactive,–
CCc1ccc2oc(-c3cc(N)ccc3Cl)nc2c1,inactive,–
CC1(C)CC(=O)C(C=Nc2ccc(O)cc2)=C(O)C1,inactive,–
N/C(=N\N=C\c1ccc(O)cc1)c1nonc1N,inactive,–
COc1cc(/C=C/C(=O)c2ccc([N+](=O)[O-])o2)ccc1O,inactive,–
CCOc1ccc(NC(=O)c2ccc(CC)s2)c([N+](=O)[O-])c1,inactive,–
CCCCNS(=O)(=O)c1ccc(OCC(=O)OC)cc1,inactive,–
C[C@H]1CN([C@@H](C)CO)S(=O)(=O)c2ccc(-c3ccncc3)cc2O[C@@H]1CN(C)Cc1ccc(Oc2ccccc2)cc1,inactive,–
O=C(NNc1nc2c(F)cccc2s1)C1COc2ccccc2O1 (configuration not stated),inactive,–
CC1C(=O)C(C)C(c2ccc([N+](=O)[O-])cc2)NC1c1ccc([N+](=O)[O-])cc1 (configuration not stated),inactive,–
COc1cc(/C=C/C(=O)OCC(=O)NC(=O)NC(C)C)ccc1O,–,> 39 µM (inactive)
O=C(O)c1ccccc1NC(=O)N1C[C@H]2C[C@@H](C1)c1cccc(=O)n1C2,inactive,–
O=S(=O)(c1ccccc1)N1CCN(Cc2nnc(-c3ccccc3)o2)CC1,inactive,–
COc1ccc(C)cc1NC(=O)C(OC(=O)C1=NNC(=O)CC1)c1ccccc1 (configuration not stated),inactive,–
Cc1cccc(/C=C/c2onc(C)c2S(=O)(=O)N2CCC(C(=O)NC(C)(C)C)CC2)c1,inactive,–
Cc1ccnc(N2C(=O)c3ccccc3C2=O)c1,inactive,–
CNC(=S)N/N=C/c1c(C(=O)OC)cnn1-c1ccc(F)cc1F,inactive,–
CC1CC(=O)N(c2ccc(NCCc3ccc(O)cc3)c([N+](=O)[O-])c2)C1=O (configuration not stated),inactive,–
CCOC(=O)c1ccc(NC(=O)Oc2cc(C)c(Cl)cc2C(C)C)cc1,inactive,–
O=c1[nH]c(CN2CCOCC2)nc2cc(Cl)ccc12,inactive,–
Cc1[nH]ccc2c1[nH]c1cc(=O)ccc12,inactive,–

SMILES,"activity change, negative = inhibition",AC50
Cc1cccc(/C=C/c2onc(C)c2S(=O)(=O)N2CCC(C(=O)N3CCCCC3)CC2)c1,inactive,–
CCCNC(=O)N1CC[C@@H]2[C@@H](CO)N(C)c3ccc(-c4ccc(F)cc4)cc3[C@@H]21,–,> 42 µM (inactive)
COc1ccc(CNC(=O)C2=CC(c3ccc(C)cc3)=NS(=O)(=O)N2C)cc1,inactive,–
O=c1c([N+](=O)[O-])cccn1Cc1ccc(F)cc1Cl,inactive,–
O=C(NC(=S)Nc1ccc(O)cc1)c1cncc(Br)c1,inactive,–
O=S(=O)(Nc1ccc(O)cc1)c1cccc2cccnc12,inactive,–
CCOc1ccccc1-n1c(=S)sc2c(=O)n(-c3ccc(F)cc3)c(SCC(=O)O)nc21,–,> 39 µM (inactive)
COC(=O)C1=C(c2ccc(F)cc2OCc2ccccc2)C[C@@H]2CC[C@H]1N2C(=O)N1CCCC1,inactive,–
CNC(=O)C1CCN(S(=O)(=O)c2c(C)noc2/C=C/c2cccc(C)c2)CC1,inactive,–
CCN1/C(=C2\OC(=S)N(C)C2=O)C=Cc2ccccc21,inactive,–
c1ccc(SCc2nc3ccccc3s2)nc1,inactive,–
Cc1ccc(CSc2nc3nc(C)cc(C)c3c(=O)[nH]2)cc1,inactive,–
NC(=O)C1(Nc2ccc(-c3ccc(Br)cc3)cc2)CCCC1,inactive,–
N#CCCN(C(=O)COC(=O)c1cc(=O)c2ccccc2o1)c1ccccc1,inactive,–
Cc1noc(/C=C/c2ccccc2F)c1S(=O)(=O)N1CCC(C(=O)N2CCN(C)CC2)CC1,inactive,–
CCc1ccc(NC(=O)c2cc(C)on2)cc1,inactive,–
COc1cc(/C=N/NC(=O)CSc2ccccn2)ccc1O,inactive,–
CN1c2ccc(-c3ccccc3)cc2[C@H]2[C@H](CCN2C(=O)CN2CCOCC2)[C@H]1CO,–,> 39 µM (inactive)
COCCn1c(NC(=S)NC(=O)C2CC2)cc(=O)[nH]c1=O,inactive,–
O=C(C[C@H]1CC[C@H]2[C@@H](COC[C@H](O)CN2C(=O)Nc2ccc(Cl)c(Cl)c2)O1)NCc1ccncc1,inactive,–
CC(=O)N(C)C[C@@H]1Oc2cc(/C=C/c3ccccc3)ccc2S(=O)(=O)N([C@H](C)CO)C[C@@H]1C,–,> 39 µM (inactive)
Cc1ccc(NC(=O)OC(C)N2CCCCC2)cc1NC(=O)OC(C)N1CCCCC1 (configuration not stated),inactive,–
CCOC(=O)N1CCN=C1SCc1ccc(Cl)c(Cl)c1,inactive,–

SMILES,"activity change, negative = inhibition",AC50
O=C(NNc1ccc(-c2csnn2)cc1)c1ccccc1C(F)(F)F,inactive,–
CCOC(=O)c1sc2nc(OCCN3CCOCC3)cc(C)c2c1N,inactive,–
CCn1cc(C(=O)O)c(=O)c2cc(F)c(N3CCN(C(=S)NC(=O)c4ccccc4Br)CC3)cc21,inactive,–
O=C(C[C@H]1CC[C@@H]2[C@H](COC[C@@H](O)CN2C(=O)c2ccccn2)O1)NC1CCC1,inactive,–
O=C(Nc1ccc(N2CCOCC2)c(Cl)c1)c1ccc2c(c1)OCCO2,inactive,–
COc1cc(/C=C(\C#N)C(=O)N2CCCCC2)ccc1O,inactive,–
Cc1cc(-c2ccc(NS(=O)(=O)c3ccccc3)c(C)c2)ccc1NS(=O)(=O)c1ccccc1,inactive,–
CCOC(=O)c1ccc[n+](CC(=O)c2ccc(NC(=O)c3ccccc3)cc2)c1,inactive,–
NC(=O)Nc1ccc(Nc2ccccc2)cc1,inactive,–
c1ccc(OCCSc2nnc3sc4ccccc4n23)cc1,–,> 39 µM (inactive)
Cc1ccc(C2=NS(=O)(=O)N(C)C(C(=O)NC(C)c3ccccc3)=C2)cc1 (configuration not stated),inactive,–
ON=C1c2ccccc2-c2ccc(O)cc21,–,22 µM
Cn1c(=O)c2c(nc(N3CCOCC3)n2CCSc2ncccn2)n(C)c1=O,inactive,–
CC(=O)Nc1cc(-c2ccc(F)cc2)[nH]n1,inactive,–
CC(=O)N(c1ccccc1C)S(=O)(=O)c1ccc(Cl)cc1,inactive,–
O=C(C[n+]1ccccc1)N/N=C/c1ccc(O)cc1,inactive,–
O=C(O)c1ccc(-c2ccc(O)c(F)c2)cc1,–,> 39 µM (inactive)
CCCn1c(N)c(C(=O)COC(=O)c2cccc(S(=O)(=O)N3CCOCC3)c2)c(=O)[nH]c1=O,inactive,–
COC(=O)C1=C(c2ccc(OCc3ccccc3)cc2)C[C@@H]2CC[C@H]1N2C(=O)NCCCc1ccccc1,inactive,–
CCOCC(=O)Nc1cc(Cl)ccc1C,inactive,–
C/C(=N\OCC(=O)Nc1nc2ccccc2s1)c1ccccc1,inactive,–
Cc1ccc2c(c1)-c1c(cnn1CC(=O)NC(C)CCc1ccco1)CO2 (configuration not stated),inactive,–
Cc1onc(-c2c(F)cccc2Cl)c1C(=O)Nc1nnc(C(F)(F)F)s1,inactive,–
